Non-standard residues stand in square brackets, D forms with d. Residues, ends and D or L forms follow the SMILES beside them. Deg = CCC(N)(CC)C(=O)O
Tests used:
Test in all cases: MTT cytotoxicity assay, 48 hours (Example 14)
[1] = system: HBL 100 (Breast); type: cell-based, human
Procedure: (§1) The cytotoxic effect of peptide sequences SEQ ID NO: 9, SEQ ID NO: 10, SEQ ID NO: 11 and SEQ ID NO: 12, were studied by MTT assay which is based on the principle of uptake of MTT[3-[4,5-dimethylthiazol-2-yl]-2,5-diphenyl tetrazolium bromide], a tetrazolium salt by the metabolically active cells where it is metabolized by active mitochondria into a blue colored formazan product which can be read spectrophotometrically. Tumor cells KB (oral squamous). HuTu80 (Stomach), PTC and SW620 (colon), U87MG (Glioblastoma), HBL 100. (Breast), HeP2 (laryngeal) and L132 (Lung) were incubated with the peptide analogs for 48 hours at 37° C. in a 96-well culture plate, followed by the addition of 100 μl MTT and further incubation of 1 hour. The formazon crystals formed inside the cells were dissolved with a detergent comprising 10% Sodium dodecyl sulfate and 0.01 N HCl and optical density read on a multiscan ELISA reader. The optical density was directly proportional to the number of proliferating and metabolically active cells.

[2] = system: HuTu80 (Stomach); type: cell-based, human
Procedure: as §1

[3] = system: KB (oral squamous); type: cell-based, human
Procedure: as §1

[4] = system: PTC (colon); type: cell-based, human
Procedure: as §1

[5] = system: SW620 (colon); type: cell-based, human
Procedure: as §1

[6] = system: HeP2 (laryngeal); type: cell-based
Procedure: as §1

[7] = system: L132 (Lung); type: cell-based
Procedure: as §1

[8] = system: U87MG (Glioblastoma); type: cell-based
Procedure: as §1

Molecule CCC(CC)(NC(=O)[C@H](Cc1c[nH]c2ccccc12)NC(=O)[C@H](CCC(N)=O)NC(=O)[C@H](N)Cc1ccccc1)C(=O)N[C@H](C(=O)NCC(=O)N[C@@H](Cc1c[nH]cn1)C(=O)N[C@@H](CC(C)C)C(N)=O)C(C)C [SEQ ID: 9, D-Phe-Gln-Trp-Deg-Val-Gly-His-Leu-NH2] (H-[dF]QW[Deg]VGHL-NH2; N-terminus assumed) has a Percentage cytotoxicity ([1]; HBL100, 10 pM) of 17.2 ± 0.1%, a Percentage cytotoxicity ([1]; HBL100, 100 pM) of 28.6 ± 2.2% and a Percentage cytotoxicity ([1]; HBL100, 1 nM) of 34.1 ± 1.8%. It also gave a Percentage cytotoxicity ([1]; HBL100, 10 nM) of 28.1 ± 0.6%, a Percentage cytotoxicity ([1]; HBL100, 100 nM) of 22.4 ± 1.7% and a Percentage cytotoxicity ([1]; HBL100, 1 μM) of 17.2 ± 0.4%. The Percentage cytotoxicity ([2]; HuTu80, 10 pM) was 19.5 ± 0.4%, the Percentage cytotoxicity ([2]; HuTu80, 100 pM) was 23.8 ± 2.8% and the Percentage cytotoxicity ([2]; HuTu80, 1 nM) was 28.0 ± 1.8%. It also gave a Percentage cytotoxicity ([2]; HuTu80, 10 nM) of 23.5 ± 2.9%, a Percentage cytotoxicity ([2]; HuTu80, 100 nM) of 13.5 ± 2.1% and a Percentage cytotoxicity ([2]; HuTu80, 1 μM) of 14.2 ± 0.6%. It also gave a Percentage cytotoxicity ([3]; 10 pM) of 20.6 ± 4.1%, a Percentage cytotoxicity ([3]; 100 pM) of 26.9 ± 2.9% and a Percentage cytotoxicity ([3]; 1 nM) of 32.6 ± 3.7%. The Percentage cytotoxicity ([3]; 10 nM) was 23.0 ± 2.1%, the Percentage cytotoxicity ([3]; 100 nM) was 20.8 ± 1.7% and the Percentage cytotoxicity ([3]; 1 μM) was 10.4 ± 1.6%. The Percentage cytotoxicity ([4]; 10 pM) was 22.4 ± 2.2%, the Percentage cytotoxicity ([4]; 100 pM) was 24.5 ± 3.9% and the Percentage cytotoxicity ([4]; 1 nM) was 25.6 ± 5.1%. For the same molecule, the Percentage cytotoxicity ([4]; 10 nM) was 26.8 ± 3.8%, the Percentage cytotoxicity ([4]; 100 nM) was 19.5 ± 4.1% and the Percentage cytotoxicity ([4]; 1 μM) was 10.3 ± 0.9%. It also gave a Percentage cytotoxicity ([5]; SW620, 10 pM) of 15.1 ± 0.3%, a Percentage cytotoxicity ([5]; SW620, 100 pM) of 28.9 ± 0.2% and a Percentage cytotoxicity ([5]; SW620, 1 nM) of 30.8 ± 0.6%. The Percentage cytotoxicity ([5]; SW620, 10 nM) was 33.2 ± 2.9%, the Percentage cytotoxicity ([5]; SW620, 100 nM) was 25.8 ± 2.8% and the Percentage cytotoxicity ([5]; SW620, 1 μM) was 21.6 ± 2.1%. For the same molecule, the Percentage cytotoxicity ([6]; HeP2, 10 pM) was 0.0 ± 0.0%, the Percentage cytotoxicity ([6]; HeP2, 100 pM) was 14.6 ± 0.6% and the Percentage cytotoxicity ([6]; HeP2, 1 nM) was 21.3 ± 2.2%. It also gave a Percentage cytotoxicity ([6]; HeP2, 10 nM) of 28.5 ± 3.1%, a Percentage cytotoxicity ([6]; HeP2, 100 nM) of 17.8 ± 0.3% and a Percentage cytotoxicity ([6]; HeP2, 1 μM) of 21.6 ± 1.8%. It also gave a Percentage cytotoxicity ([7]; L132, 10 pM) of 0.0 ± 0.0%, a Percentage cytotoxicity ([7]; L132, 100 pM) of 22.4 ± 0.8% and a Percentage cytotoxicity ([7]; L132, 1 nM) of 30.5 ± 4.1%. The Percentage cytotoxicity ([7]; L132, 10 nM) was 27.2 ± 3.1%, the Percentage cytotoxicity ([7]; L132, 100 nM) was 25.9 ± 2.6% and the Percentage cytotoxicity ([7]; L132, 1 μM) was 18.3 ± 2.9%. The Percentage cytotoxicity ([8]; 10 pM) was 0.0 ± 0.0%, the Percentage cytotoxicity ([8]; 100 pM) was 11.9 ± 4.1% and the Percentage cytotoxicity ([8]; 1 nM) was 21.8 ± 0.1%. For the same molecule, the Percentage cytotoxicity ([8]; 10 nM) was 20.0 ± 0.0%, the Percentage cytotoxicity ([8]; 100 nM) was 21.4 ± 0.1% and the Percentage cytotoxicity ([8]; 1 μM) was 10.0 ± 0.0%.

— US6989371B1, “Bombesin analogs for treatment of cancer” (Dabur Research Foundation, priority 1996, dated 2006)
